How the values were obtained:
[1] = tested on: cells; settings: in vitro; cited from earlier work
[2] = tested on: cells; format: cell-based
Description: Another synthetic polymer that has been recently evaluated for its ability to mediate gene transfer is polyethyleneimine (PEI) which contains primary, secondary, and tertiary amines (Abdallah, B.; Hassan, A.; Benoist; Goula, D.; Behr, J. P.; Demeneix, B. A. Human Gene Therapy 1996, 7, 1947; Boussif, O.; Lezoualc'h, F.; Zanta, M. A.; Mergny, M. D., Scherman, D.; Demeneix, B.; Behr, J. P. Proc. Natl. Acad. Sci. USA 1995, 92, 7297). The advantage of PEI over polylysine as a mediator for gene transfer is that it contains a built-in mechanism for endosome escape. The overall protonation of PEI at pH=7 is approximately 20% whereas the overall protonation at pH=5 is approximately 45% (Suh, J.; Paik, H. J.; Hwang, B. K. Bioorg. Chem. 1994, 22, 318). […] In fact, PEI is capable of mediating gene transfer equal to the best lipid systems.

Compound | concentration required to enhance transfection [1] | toxicity to cells in vitro [2]
OCC(O)CO [glycerol] | 1-1.5 M | 
polyethyleneimine [PEI] |  | toxic to cells in vitro
